Data on eight compounds can be found in ChEMBL document CHEMBL1201862, “PubChem BioAssay data set” (2004).

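Five compound concentrations were applied to cells in 96-well plates for 48 hours; endpoints were derived by simple linear interpolation of the resulting dose-response curve. At the GI50, growth is halved.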 Calls of active or inactive are those of the source. No stated cut-off is given here; in the data, active = GI50 up to about 1.1 µM and inactive = higher. Bounds are passed on as bounds.

Experiment in all cases: inhibition of tumour cell growth, NCI panel, 48 h
The test system of experiment [1] is A549.
Experiment [2] deals with BT-549.
In experiment [3] the test system is HCC 2998.
For experiment [4], the system named is HL-60.
Experiment [5] has as its system Hs-578T.
Experiment [6] concerns IGROV-1.
Experiment [7] deals with KM12.
Experiment [8] deals with LOX IMVI.
In experiment [9] the test system is MCF7.
The subject of experiment [10] is MDA-MB-435.
For experiment [11], the system named is MOLT-4.
The subject of experiment [12] is Malme-3M.
Experiment [13] concerns OVCAR-5.
The subject of experiment [14] is PC-3.
For experiment [15], the system named is SF-295.
Experiment [16] relates to SK-MEL-28.
The subject of experiment [17] is SK-OV-3.
The subject of experiment [18] is SN12C.
The test system of experiment [19] is SW-620.
For experiment [20], the system named is U-251.

With `CCN1C/C(=C\c2cc(OC)c(OC)c(OC)c2)C2=NN(c3ccccc3)C(c3cc(OC)c(OC)c(OC)c3)C2C1` (stereo not given), the GI50 in experiment [1] was 1.5 µM (inactive); in experiment [2], 6.75 µM (inactive); in [3], 1.07 µM (active); in experiment [4], 3.03 µM (inactive); in experiment [5], 0.34 µM (active); in [6] it was 6.43 µM (inactive). Besides, the GI50 is 4.34 µM (inactive) in experiment [7]; 2.08 µM (inactive) in [8]; 6 µM (inactive) in experiment [9]; 1.52 µM (inactive) in experiment [10]; 5.05 µM (inactive) in [11]; 0.203 µM (active) in experiment [12]. Moreover, the GI50 in experiment [13] was 2.84 µM (inactive); in experiment [14], 1.08 µM (active); in experiment [15], 2.54 µM (inactive); in experiment [16], 0.871 µM (active); in experiment [17], 1.74 µM (inactive); in experiment [18], 2.47 µM (inactive). Also, the GI50 in [19] is 2.56 µM (inactive); in experiment [20], 0.652 µM (active).

Take `CC1CC[C@@]2(OC1)O[C@H]1C[C@H]3[C@@H]4CC[C@H]5C[C@@H](OC6OC(CO)C(OC7OC(CO)C(OC8OC(CO)C(O)C(OC9OC(C)C(OC%10OC(C)C(O)C(O)C%10O)C(O)C9O)C8OC8OCC(O)C(O)C8O)C(O)C7O)C(O)C6O)CC[C@]5(C)[C@H]4CC(=O)[C@]3(C)[C@H]1[C@@H]2C` (stereo not given in full): the GI50 is 23.2 µM (inactive) in experiment [1]; 20.9 µM (inactive) in experiment [2]; 18.7 µM (inactive) in experiment [3]; 12.9 µM (inactive) in experiment [4]; 24.2 µM (inactive) in [5]; 20.5 µM (inactive) in [6]. Also, the GI50 in experiment [7] is 18.2 µM (inactive); in experiment [8], 23.8 µM (inactive); in experiment [9], 17.7 µM (inactive); in experiment [10], 18.7 µM (inactive); in [11], 18.1 µM (inactive); in [12], 22.4 µM (inactive). For the same compound, the GI50 in experiment [13] is 20.8 µM (inactive); in experiment [14], 16.7 µM (inactive); in [15] it was 23.9 µM (inactive); in experiment [16], 18.1 µM (inactive); in experiment [17], 24.1 µM (inactive); in experiment [18], 20.9 µM (inactive). The GI50 in [19] is 20.3 µM (inactive); in experiment [20], 18.7 µM (inactive).

On to `c1cc(-c2ccc(-c3ccc(-c4ccc(-c5cccc6nsnc56)[nH]4)c4nsnc34)[nH]2)c2nsnc2c1`, for which the GI50 was > 100 µM (inactive) in [1]; > 100 µM (inactive) in experiment [2]; > 100 µM (inactive) in [3]; 1.53 µM (inactive) in [4]; > 100 µM (inactive) in experiment [5]; > 100 µM (inactive) in [6]. Besides, the GI50 in experiment [7], in [8], in experiment [9], in experiment [10], in experiment [11] and in experiment [12] was > 100 µM (inactive) in each case. The GI50 in [13], in [14], in experiment [15], in experiment [16], in experiment [17] and in [18] was > 100 µM (inactive) in each case. In addition, the GI50 in experiment [19] and in experiment [20] was > 100 µM (inactive) throughout.

Turning to `COc1ccc(C(c2c[nH]c3ccc(Br)cc23)c2c[nH]c3ccc(Br)cc23)cc1`, the GI50 in [1] was 0.346 µM (active); in experiment [2], 1.51 µM (inactive); in experiment [3], 0.181 µM (active); in [4] it was 0.0828 µM (active); in experiment [5], 0.575 µM (active); in [6], 0.264 µM (active). Moreover, the GI50 in experiment [7] is 0.197 µM (active); in experiment [8], 0.137 µM (active); in experiment [9], 0.21 µM (active); in [10], 0.172 µM (active); in [11], 0.142 µM (active); in experiment [12] it was 0.811 µM (active). The GI50 was 0.385 µM (active) in [13]; 0.284 µM (active) in experiment [14]; 0.313 µM (active) in [15]; 0.303 µM (active) in [16]; 1.24 µM (inactive) in [17]; 0.31 µM (active) in experiment [18]. For the same compound, the GI50 in [19] is 0.29 µM (active); in experiment [20], 0.22 µM (active).

For `O=C(CC(Cc1ccccc1)c1ccc(Oc2ccccc2)cc1)Nc1cccc(Cl)c1` (stereo not given), the GI50 was 3.9 µM (inactive) in experiment [1]; 7.67 µM (inactive) in [2]; 3.27 µM (inactive) in experiment [3]; 3.02 µM (inactive) in experiment [4]; 7.85 µM (inactive) in experiment [5]; 2.9 µM (inactive) in experiment [6]. Moreover, the GI50 is 3.29 µM (inactive) in experiment [7]; 3.73 µM (inactive) in [8]; 3.42 µM (inactive) in experiment [9]; 4.32 µM (inactive) in [10]; 3.69 µM (inactive) in experiment [11]; 15 µM (inactive) in experiment [12]. Besides, the GI50 is 28.6 µM (inactive) in experiment [13]; 3.7 µM (inactive) in experiment [14]; 3.24 µM (inactive) in [15]; 9.16 µM (inactive) in experiment [16]; 5.46 µM (inactive) in experiment [17]; 4.22 µM (inactive) in [18]. Moreover, the values for the GI50 in experiment [19] and in experiment [20] were 4.42 µM (inactive) and 3.95 µM (inactive), respectively.

Consider `COc1cc(O)c2c(=O)c(OC)c(-c3ccc4c(c3)OCO4)oc2c1OC`, for which the GI50 was > 50 µM (inactive) in experiment [1]; 13.4 µM (inactive) in experiment [2]; > 50 µM (inactive) in [3]; > 50 µM (inactive) in experiment [4]; 28.1 µM (inactive) in experiment [5]; > 50 µM (inactive) in experiment [6]. The GI50 in [7], in [8], in experiment [9], in experiment [10], in [11] and in experiment [12] was > 50 µM (inactive) each time. For the same compound, the GI50 in experiment [13] was > 50 µM (inactive); in [14] it was > 50 µM (inactive); in [15], 29 µM (inactive); in experiment [16] it was > 50 µM (inactive); in [17], 21.7 µM (inactive); in [18], > 50 µM (inactive). Besides, the results for the GI50 in experiment [19] and in experiment [20] were > 50 µM (inactive) and 12.9 µM (inactive), respectively.

As for `Fc1ccc2c(c1)nc1n2C(c2c(F)cccc2F)SC1` (stereo not given), the GI50 in [1] was 48.5 µM (inactive); in experiment [2], 42.5 µM (inactive); in experiment [3], 71.6 µM (inactive); in experiment [4] it was 20.7 µM (inactive); in experiment [5], 47 µM (inactive); in experiment [6], 64.9 µM (inactive). For the same compound, the GI50 in experiment [7] was 18.2 µM (inactive); in [8] it was 45.7 µM (inactive); in [9], 42.1 µM (inactive); in [10] it was 49.9 µM (inactive); in experiment [11] it was 25.8 µM (inactive); in experiment [12] it was 55.1 µM (inactive). Further, the GI50 was 98.6 µM (inactive) in [13]; 51.6 µM (inactive) in experiment [14]; 30 µM (inactive) in [15]; > 100 µM (inactive) in [16]; 59.2 µM (inactive) in experiment [17]; 70.8 µM (inactive) in experiment [18]. Besides, the values for the GI50 in experiment [19] and in experiment [20] were 69.3 µM (inactive) and 57 µM (inactive), respectively.

On to `CC1=NN=C(N)NC1=CC(Sc1ccc(Cl)cc1)c1c(O)ccc2ccccc12` (stereo not given), for which the GI50 is 28.9 µM (inactive) in experiment [1]; 13.6 µM (inactive) in [2]; 16.7 µM (inactive) in experiment [3]; > 10 µM (inactive) in experiment [4]; 5.25 µM (inactive) in [5]; 13 µM (inactive) in experiment [6]. In addition, the GI50 in experiment [7] is 14.5 µM (inactive); in experiment [8], 19.3 µM (inactive); in experiment [9], 20 µM (inactive); in experiment [10], 19.6 µM (inactive); in [11], 21.1 µM (inactive); in experiment [12] it was 3.88 µM (inactive). The GI50 was 23.1 µM (inactive) in experiment [13]; 16.1 µM (inactive) in [14]; 4.21 µM (inactive) in experiment [15]; 14 µM (inactive) in experiment [16]; 18.3 µM (inactive) in [17]; 19 µM (inactive) in experiment [18]. Besides, the GI50 is 24.8 µM (inactive) in experiment [19] and 18.3 µM (inactive) in experiment [20].
